Experimental data from patent US9353107B2 (Aurigene Discovery Technologies Limited, priority 2012, dated 2016).
Structures can show the parent of a compound that is named as a salt.

Biological target: T1, recombinant human ALK enzyme (ALK WT) (Homo sapiens, UniProt Q9UM73)
T1 construct: purchased Carna Biosciences 08-518
Assay: ALK WT cell free enzymatic assay (TR-FRET)
Assay type: biochemical
Conditions: 1 μM ATP; for IC50: 10 point dose response; for inhibition at 0.1 µM: compound at 100 nM; for inhibition at 0.1 µM / inhibition at 1 µM: 30 min pre-incubation; for inhibition at 1 µM: compound at 1 μM
Experimental: ALK Wild Type (WT) The ALK WT cell free assay was set up to evaluate the effects of these compounds as inhibitors of ALK enzyme. The enzymatic assay was standardized using recombinant human ALK enzyme (Cat#08-518) from Carna Biosciences using Ultra Light Poly GT (Cat# TRF 0100D) from Perkin Elmer as a substrate. TR-FRET (Time resolved fluorescence resonance energy transfer) detection technology was used for the read out. The final assay conditions were 50 mM HEPES pH 7.1, 10 mM MgCl2, 2 mM MnCl2, 0.01% BSA, 2.5 mM DTT, 0.1 mM Na3 VO4, 40 nM Ultra Light Poly GT, 2.5 ng ALK WT enzyme, 1 μM ATP and 125 nM Lance Eu-W1024 labeled anti phospho tyrosine antibody (Cat# AD0203, Perkin Elmer) in 384 well format. The assay reaction time with the substrate was 30 minutes after which the antibody detection mix is added. The TR-FRET signal (Excitation at 340 nm, Emission at 615 nm and 665 nm) was read with 50 μs delay time on Victor^3 V fluorimeter. The data is calculated using the ratio of reading at 665 nM to 615 nM. The final concentration of DMSO was 1% in the assay. Compounds were screened at 100 nM and 1 μM concentrations with pre-incubation of the enzymes with compound for 30 minutes. Each individual IC50 was determined using 10 point dose response curve generated by GraphPad Prism software Version 4 (San Diego, Calif., USA) using non linear regression curve fit for sigmoidal dose response (variable slope). Percentage inhibition at concentrations of 100 nM and 1.0 μM are given in table along with the IC50 (nM) details for selected examples.

T1 sequence (Q9UM73 1058-1620 limits assumed): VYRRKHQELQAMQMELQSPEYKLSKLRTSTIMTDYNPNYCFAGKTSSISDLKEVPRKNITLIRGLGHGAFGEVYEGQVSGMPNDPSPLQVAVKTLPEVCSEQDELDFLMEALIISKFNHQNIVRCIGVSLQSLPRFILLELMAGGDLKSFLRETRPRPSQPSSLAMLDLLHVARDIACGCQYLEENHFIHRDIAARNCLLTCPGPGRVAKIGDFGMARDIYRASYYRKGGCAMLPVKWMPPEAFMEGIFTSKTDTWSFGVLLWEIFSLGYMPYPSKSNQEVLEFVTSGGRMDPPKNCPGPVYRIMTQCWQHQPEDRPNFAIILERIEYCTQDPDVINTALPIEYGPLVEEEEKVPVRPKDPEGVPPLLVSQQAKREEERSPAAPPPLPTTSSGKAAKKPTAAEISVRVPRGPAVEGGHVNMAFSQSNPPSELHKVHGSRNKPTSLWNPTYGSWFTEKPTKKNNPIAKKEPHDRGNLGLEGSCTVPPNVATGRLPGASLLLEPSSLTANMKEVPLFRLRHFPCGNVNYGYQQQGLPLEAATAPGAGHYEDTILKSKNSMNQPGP

For `Cc1nn(Cc2cccc(F)c2)c(C)c1-c1c[nH]c2ncc(-c3ccc(OCCCN(C)C)c(NS(C)(=O)=O)c3)cc12` [Example 26, N-(2-(3-(dimethylamino)propoxy)-5-(3-(1-(3-fluorobenzyl)-3,5-dimethyl-1H-pyrazol-4-yl)-1H-pyrrolo[2,3-b]pyridin-5-yl)phenyl)methanesulfonamide], the IC50 was under 50 nM, the inhibition at 0.1 µM was 96% and the inhibition at 1 µM was 100%.
`COc1ccc(-c2cc3c(-c4c(C)nn(Cc5cc(F)cc(F)c5)c4C)c[nH]c3nc2C2CC2)cc1NS(C)(=O)=O` [Example 27, N-(5-(6-cyclopropyl-3-(1-(3,5-difluorobenzyl)-3,5-dimethyl-1H-pyrazol-4-yl)-1H-pyrrolo[2,3-b]pyridin-5-yl)-2-methoxyphenyl)methanesulfonamide] gave an inhibition at 0.1 µM of 9% and an inhibition at 1 µM of 8%.
In the case of `COc1ccc(-c2cc3c(-c4c(C)nn(Cc5cccc(F)c5)c4C)c[nH]c3nc2C2CC2)cc1NS(C)(=O)=O` [Example 28, N-(5-(6-cyclopropyl-3-(1-(3-fluorobenzyl)-3,5-dimethyl-1H-pyrazol-4-yl)-1H-pyrrolo[2,3-b]pyridin-5-yl)-2-methoxyphenyl)methanesulfonamide], the inhibition at 0.1 µM is reported as 14% and the inhibition at 1 µM is reported as 49%.
`COc1ccc(-c2cnc3[nH]cc(-c4c(C)nn(Cc5cccc(F)c5)c4C)c3c2)c(OC)c1NS(C)(=O)=O` [Example 29, N-(3-(3-(1-(3-fluorobenzyl)-3,5-dimethyl-1H-pyrazol-4-yl)-1H-pyrrolo[2,3-b]pyridin-5-yl)-2,6-dimethoxyphenyl)methanesulfonamide] was tested, and the inhibition at 0.1 µM was 28% and the inhibition at 1 µM was 48%.
For `COc1ccc(-c2cnc3[nH]c(C4CC4)c(-c4c(C)nn(Cc5cccc(F)c5)c4C)c3c2)cc1NS(C)(=O)=O` [Example 30, N-(5-(2-cyclopropyl-3-(1-(3-fluorobenzyl)-3,5-dimethyl-1H-pyrazol-4-yl)-1H-pyrrolo[2,3-b]pyridin-5-yl)-2-methoxyphenyl)methanesulfonamide], the inhibition at 0.1 µM was 21% and the inhibition at 1 µM was 21%.
Molecule `CC(C)(C)OC(=O)N1CCN(c2cccc(-c3cnc4[nH]cc(-c5cnn(Cc6cc(F)ccc6F)c5)c4c3)c2)CC1` [Example 31, tert-butyl 4-(3-(3-(1-(2,5-difluorobenzyl)-1 h-pyrazol-4-yl)-1 h-pyrrolo[2,3-b]pyridin-5-yl)phenyl)piperazine-1-carboxylate] has an IC50 of over 250 nM and an inhibition at 1 µM of 55%.
For `Fc1ccc(F)c(Cn2cc(-c3c[nH]c4ncc(-c5cccc(N6CCNCC6)c5)cc34)cn2)c1` [Example 32, 3-(1-(2,5-difluorobenzyl)-1H-pyrazol-4-yl)-5-(3-(piperazin-1-yl)phenyl)-1H-pyrrolo[2,3-b]pyridine], the IC50 was under 50 nM and the inhibition at 1 µM was 99%.
`Fc1cccc(Cn2cc(-c3c[nH]c4ncc(-c5cccc(N6CCNCC6)c5)cc34)cn2)c1` [Example 33, 3-(1-(3-fluorobenzyl)-1H-pyrazol-4-yl)-5-(3-(piperazin-1-yl)phenyl)-1H-pyrrolo[2,3-b]pyridine hydrochloride] gave an IC50 of under 50 nM, an inhibition at 0.1 µM of 97% and an inhibition at 1 µM of 100%.
Molecule `N#CCCN1CCN(c2cccc(-c3cnc4[nH]cc(-c5cnn(Cc6cccc(F)c6)c5)c4c3)c2)CC1` [Example 34, 3-(4-(3-(3-(1-(3-fluorobenzyl)-1H-pyrazol-4-yl)-1H-pyrrolo[2,3-b]pyridin-5-yl)phenyl)piperazin-1-yl) propanenitrile] has an IC50 of under 50 nM, an inhibition at 0.1 µM of 91% and an inhibition at 1 µM of 99%.
Work on `CC(C)N1CCN(c2cccc(-c3cnc4[nH]cc(-c5cnn(Cc6cccc(F)c6)c5)c4c3)c2)CC1` [Example 35, 3-(1-(3-fluorobenzyl)-1H-pyrazol-4-yl)-5-(3-(4-isopropylpiperazin-1-yl)phenyl)-1H-pyrrolo[2,3-b]pyridine] yielded an IC50 of under 50 nM, an inhibition at 0.1 µM of 98% and an inhibition at 1 µM of 99%.
Molecule `CN1CCN(c2cccc(-c3cnc4[nH]cc(-c5cnn(Cc6cccc(F)c6)c5)c4c3)c2)CC1` [Example 36, 3-(1-(3-fluorobenzyl)-1H-pyrazol-4-yl)-5-(3-(4-methylpiperazin-1-yl)phenyl)-1H-pyrrolo[2,3-b]pyridine] has an IC50 of under 50 nM, an inhibition at 0.1 µM of 96% and an inhibition at 1 µM of 99%.
With `Cc1nn(Cc2cccc(F)c2)cc1-c1c[nH]c2ncc(-c3cccc(N4CCNCC4)c3)cc12` [Example 37, 3-(1-(3-fluorobenzyl)-3-methyl-1H-pyrazol-4-yl)-5-(3-(piperazin-1-yl)phenyl)-1H-pyrrolo[2,3-b]pyridine] the IC50 was under 50 nM, the inhibition at 0.1 µM was 93% and the inhibition at 1 µM was 98%.
`Cc1nn(Cc2cccc(F)c2)c(C)c1-c1c[nH]c2ncc(-c3cccc(N4CCNCC4)c3)cc12` [Example 38, 3-(1-(3-fluorobenzyl)-3,5-dimethyl-1H-pyrazol-4-yl)-5-(3-(piperazin-1-yl)phenyl)-1H-pyrrolo[2,3-b]pyridine] was tested, and the IC50 was under 50 nM, the inhibition at 0.1 µM was 87% and the inhibition at 1 µM was 99%.
Molecule `Fc1cccc(Cn2cc(-c3c[nH]c4ncc(-c5ccc(N6CCNCC6)cc5)cc34)cn2)c1` [Example 39, 3-(1-(3-fluorobenzyl)-1H-pyrazol-4-yl)-5-(4-(piperazin-1-yl)phenyl)-1H-pyrrolo[2,3-b]pyridine hydrochloride] has an IC50 of under 50 nM, an inhibition at 0.1 µM of 92% and an inhibition at 1 µM of 99%.
Molecule `Cc1nn(Cc2cccc(F)c2)c(C)c1-c1c[nH]c2ncc(-c3ccc(N4CCNCC4)cc3)cc12` [Example 40, 3-(1-(3-fluorobenzyl)-3,5-dimethyl-1H-pyrazol-4-yl)-5-(4-(piperazin-1-yl)phenyl)-1H-pyrrolo[2,3-b]pyridine hydrochloride] has an IC50 of under 50 nM, an inhibition at 0.1 µM of 94% and an inhibition at 1 µM of 100%.
`Cc1nn(Cc2cccc(F)c2)c(C)c1-c1c[nH]c2ncc(-c3ccc(N4CCN(CCO)CC4)cc3)cc12` [Example 41, 2-(4-(4-(3-(1-(3-fluorobenzyl)-3,5-dimethyl-1H-pyrazol-4-yl)-1H-pyrrolo[2,3-b]pyridin-5-yl)phenyl)piperazin-1-yl)ethanol] was tested, and the IC50 was under 50 nM, the inhibition at 0.1 µM was 90% and the inhibition at 1 µM was 100%.
Work on `Cc1nn(Cc2cc(F)ccc2F)c(C)c1-c1c[nH]c2ncc(-c3ccc(N4CCNCC4)cc3)cc12` [Example 42, 3-(1-(2,5-difluorobenzyl)-3,5-dimethyl-1H-pyrazol-4-yl)-5-(4-(piperazin-1-yl)phenyl)-1H-pyrrolo[2,3-b]pyridine hydrochloride] yielded an IC50 of under 50 nM, an inhibition at 0.1 µM of 92% and an inhibition at 1 µM of 100%.
Work on `Cc1nn(Cc2cc(F)cc(F)c2)c(C)c1-c1c[nH]c2ncc(-c3ccc(N4CCNCC4)cc3)cc12` [Example 43, 3-(1-(3,5-difluorobenzyl)-3,5-dimethyl-1H-pyrazol-4-yl)-5-(4-(piperazin-1-yl)phenyl)-1H-pyrrolo[2,3-b]pyridine hydrochloride] yielded an IC50 of under 50 nM, an inhibition at 0.1 µM of 92% and an inhibition at 1 µM of 99%.
In the case of `Cc1c(-c2c[nH]c3ncc(-c4ccc(N5CCNCC5)cc4)cc23)cnn1Cc1cccc(F)c1` [Example 44, 3-(1-(3-fluorobenzyl)-5-methyl-1H-pyrazol-4-yl)-5-(4-(piperazin-1-yl)phenyl)-1H-pyrrolo[2,3-b]pyridine hydrochloride], the IC50 is reported as under 50 nM, the inhibition at 0.1 µM is reported as 95% and the inhibition at 1 µM is reported as 100%.
